Source: ChEMBL document CHEMBL3797035 (Bioorg Med Chem, 2016)

Key:
D(1A) dopamine receptor = D(1A) dopamine receptor (Homo sapiens, UniProt P21728); assay: Displacement of [3H]SCH23390 from human D1 receptor expressed in HEK293 cells; format: cell-based
D(2) dopamine receptor [1] = target: T1, D(2) dopamine receptor (Homo sapiens, UniProt P14416); assay: Displacement of [3H]spiperone from human D2L receptor expressed in CHO cells; format: cell-based
[2] = target: Beta-1 adrenergic receptor (Mus musculus, UniProt P34971); assay: Displacement of [3H]CGP12177 from mouse beta1 receptor expressed in HEK293 cells; format: cell-based
[3] = target: T2, Beta-2 adrenergic receptor (Homo sapiens, UniProt P07550); assay: Agonist activity at human beta2 receptor expressed in HEK293 cells cotransfected with Gqs5 protein assessed as [3H]IP3 accumulation after 120 mins by scintillation counting assay in presence of myo-[3H]-inositol; format: functional, cell-based
D(2) dopamine receptor [4] = target: T1, D(2) dopamine receptor; assay: Displacement of [3H]spiperone from human D2S receptor expressed in CHO cells; format: cell-based
[5] = target: T2, Beta-2 adrenergic receptor; assay: Displacement of [3H]CGP12177 from human beta2 receptor expressed in CHO cells; format: cell-based
D(4) dopamine receptor = target: T3, D(4) dopamine receptor (Homo sapiens, UniProt P21917); assay: Displacement of [3H]spiperone from human D4.4 receptor expressed in CHO cells; format: cell-based
T3 sequence (P21917 whole entry): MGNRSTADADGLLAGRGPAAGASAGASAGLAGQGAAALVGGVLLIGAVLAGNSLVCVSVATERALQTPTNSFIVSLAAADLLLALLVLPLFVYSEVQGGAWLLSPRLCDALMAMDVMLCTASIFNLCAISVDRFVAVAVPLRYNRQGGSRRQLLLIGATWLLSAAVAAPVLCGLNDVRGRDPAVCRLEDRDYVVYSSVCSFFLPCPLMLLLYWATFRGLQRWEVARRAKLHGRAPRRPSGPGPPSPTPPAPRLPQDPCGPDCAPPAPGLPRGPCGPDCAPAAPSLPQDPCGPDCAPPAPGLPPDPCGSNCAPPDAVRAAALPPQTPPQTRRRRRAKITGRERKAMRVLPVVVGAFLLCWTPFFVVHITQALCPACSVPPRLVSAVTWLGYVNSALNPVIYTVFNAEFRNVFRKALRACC

[6] = target: T2, Beta-2 adrenergic receptor; assay: Agonist activity at PK-tagged beta2 receptor (unknown origin) transfected in HEK293 cells after 90 mins by beta-arrestin assay; format: cell-based
D(3) dopamine receptor = D(3) dopamine receptor (Homo sapiens, UniProt P35462); assay: Displacement of [3H]spiperone from human D3 receptor expressed in CHO cells; format: cell-based
[7] = Displacement of [3H]RX821002 from alpha-2 receptor in porcine cortical membranes; format: cell membranes, Sus scrofa
[8] = Displacement of [3H]prazosine from alpha-1 receptor in porcine cortical membranes; format: cell membranes, Sus scrofa
D(2) dopamine receptor [9] = target: T1, D(2) dopamine receptor; assay: Agonist activity at ARMS2-PK-tagged D2S receptor (unknown origin) transfected in HEK293 cells after 5 hrs by beta-arrestin assay; format: cell-based
D(2) dopamine receptor [10] = target: T1, D(2) dopamine receptor; assay: Agonist activity at human D2S receptor expressed in HEK293 cells cotransfected with Gqi5 protein assessed as [3H]IP3 accumulation after 120 mins by scintillation counting assay in presence of myo-[3H]-inositol; format: functional, cell-based
Homo sapiens = species on record: Homo sapiens; assay: Selectivity index, ratio of Ki for human D2S receptor to Ki for human beta2 receptor

Chain of D(3) dopamine receptor (P35462 whole entry): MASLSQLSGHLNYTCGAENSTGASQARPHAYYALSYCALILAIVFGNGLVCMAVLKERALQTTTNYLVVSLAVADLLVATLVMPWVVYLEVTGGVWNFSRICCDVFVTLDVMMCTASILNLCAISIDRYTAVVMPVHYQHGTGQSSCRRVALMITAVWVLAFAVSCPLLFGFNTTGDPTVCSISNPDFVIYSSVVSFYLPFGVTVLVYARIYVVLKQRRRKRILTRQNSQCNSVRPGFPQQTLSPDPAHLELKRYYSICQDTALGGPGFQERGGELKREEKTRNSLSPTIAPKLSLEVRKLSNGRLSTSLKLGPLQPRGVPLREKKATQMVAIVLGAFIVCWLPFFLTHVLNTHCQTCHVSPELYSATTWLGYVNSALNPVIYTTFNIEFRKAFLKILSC
Chain of Beta-1 adrenergic receptor (P34971 whole entry): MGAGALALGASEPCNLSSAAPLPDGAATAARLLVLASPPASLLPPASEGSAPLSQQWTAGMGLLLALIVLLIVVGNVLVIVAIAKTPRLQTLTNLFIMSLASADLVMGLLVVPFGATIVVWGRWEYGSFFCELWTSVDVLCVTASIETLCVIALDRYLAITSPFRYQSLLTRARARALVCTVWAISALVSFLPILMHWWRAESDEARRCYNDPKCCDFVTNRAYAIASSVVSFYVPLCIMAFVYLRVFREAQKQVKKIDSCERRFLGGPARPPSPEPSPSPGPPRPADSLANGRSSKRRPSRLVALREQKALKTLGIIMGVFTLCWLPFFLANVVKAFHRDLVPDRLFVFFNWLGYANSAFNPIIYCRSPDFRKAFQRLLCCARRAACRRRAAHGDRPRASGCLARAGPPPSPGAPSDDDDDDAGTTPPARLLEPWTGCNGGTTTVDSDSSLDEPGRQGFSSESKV
Chain of D(1A) dopamine receptor (P21728 whole entry): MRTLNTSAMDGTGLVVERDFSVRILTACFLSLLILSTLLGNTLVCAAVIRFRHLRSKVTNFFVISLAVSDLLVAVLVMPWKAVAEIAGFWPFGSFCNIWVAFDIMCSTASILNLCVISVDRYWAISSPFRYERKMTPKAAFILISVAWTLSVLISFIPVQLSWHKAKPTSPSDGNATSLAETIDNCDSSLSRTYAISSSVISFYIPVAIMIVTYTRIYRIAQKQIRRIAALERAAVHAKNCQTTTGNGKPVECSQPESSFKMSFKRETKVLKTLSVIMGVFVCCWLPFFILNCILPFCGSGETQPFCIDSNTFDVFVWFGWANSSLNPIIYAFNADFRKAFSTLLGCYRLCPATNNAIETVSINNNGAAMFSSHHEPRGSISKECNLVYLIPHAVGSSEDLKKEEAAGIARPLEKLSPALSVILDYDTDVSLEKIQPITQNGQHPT
T2 sequence (P07550 whole entry): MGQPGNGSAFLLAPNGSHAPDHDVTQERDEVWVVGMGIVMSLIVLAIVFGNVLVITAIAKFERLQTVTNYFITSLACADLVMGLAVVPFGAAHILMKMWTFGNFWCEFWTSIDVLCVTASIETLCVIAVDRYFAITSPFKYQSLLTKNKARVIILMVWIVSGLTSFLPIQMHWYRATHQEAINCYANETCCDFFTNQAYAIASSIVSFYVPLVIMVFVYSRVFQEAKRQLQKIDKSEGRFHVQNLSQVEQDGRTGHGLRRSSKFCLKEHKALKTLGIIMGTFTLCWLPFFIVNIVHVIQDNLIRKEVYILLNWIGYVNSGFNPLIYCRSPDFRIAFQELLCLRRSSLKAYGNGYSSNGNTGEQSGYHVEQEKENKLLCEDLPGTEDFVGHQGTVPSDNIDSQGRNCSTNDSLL
T1 sequence (P14416 whole entry): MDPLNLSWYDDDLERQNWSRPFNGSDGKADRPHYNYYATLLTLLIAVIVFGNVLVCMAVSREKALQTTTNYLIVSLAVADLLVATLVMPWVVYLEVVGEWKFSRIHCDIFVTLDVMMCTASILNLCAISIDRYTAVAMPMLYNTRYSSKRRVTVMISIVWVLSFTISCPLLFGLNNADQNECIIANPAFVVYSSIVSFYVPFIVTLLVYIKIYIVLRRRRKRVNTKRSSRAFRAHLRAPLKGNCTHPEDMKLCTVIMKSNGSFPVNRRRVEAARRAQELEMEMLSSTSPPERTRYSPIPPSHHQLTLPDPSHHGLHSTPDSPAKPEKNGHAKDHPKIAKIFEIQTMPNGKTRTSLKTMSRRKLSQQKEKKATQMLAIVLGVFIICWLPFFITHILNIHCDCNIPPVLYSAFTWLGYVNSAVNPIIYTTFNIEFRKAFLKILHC

| Ki (D(1A) dopamine receptor) | Ki (D(2) dopamine receptor [1]) | Ki [2] | EC50 [3] | Ki (D(2) dopamine receptor [4]) | Ki [5] | Ki (D(4) dopamine receptor) | EC50 [6] | Ki (D(3) dopamine receptor) | Ki [7] | Ki [8] | EC50 (D(2) dopamine receptor [9]) | EC50 (D(2) dopamine receptor [10]) | Ratio Ki (Homo sapiens) | Compound |
| --- | --- | --- | --- | --- | --- | --- | --- | --- | --- | --- | --- | --- | --- | --- |
| 2900 nM | 1900 nM | 530 nM | 2600 nM | 1700 nM | 47 nM | 1000 nM | 650 nM | 660 nM | 2500 nM |  |  |  |  | COc1cc(CCNC[C@@H](O)c2ccc(O)c(O)c2)ccc1OCCCc1ccccc1 |
| 430 nM | 350 nM | 1500 nM | 1400 nM | 200 nM | 850 nM | 240 nM | 2200 nM | 610 nM | 760 nM | 19 nM |  |  |  | COc1ccccc1OCCNC[C@@H](O)c1ccc(O)c(O)c1 |
|  |  |  |  | 910 nM |  |  |  |  |  |  |  |  |  | CNC[C@H](O)c1ccc(O)c(O)c1 [EPINEPHRINE] |
| 960 nM | 12 nM | 79 nM |  | 17 nM | 2.8 nM | 55 nM |  | 3.5 nM | 270 nM | 120 nM | 1100 nM | 2.6 nM |  | COc1cc(CCNCCc2ccc(O)c3c2OCC(=O)N3)ccc1OCCCc1ccccc1 |
| > 50000 nM | 48000 nM |  |  | 12000 nM |  | 2900 nM |  | 4700 nM | 5700 nM | 78000 nM |  |  |  | CC(C)NCC(O)c1ccc(O)c(O)c1 (centres undefined) [ISOPROTERENOL] |
|  |  |  |  |  | 100000 nM |  |  |  |  |  |  |  |  | CCCN[C@H]1CCc2nc(N)sc2C1 [PRAMIPEXOLE] |
| 860 nM | 63 nM | 2300 nM | 47000 nM | 120 nM | 53 nM | 38 nM |  | 12 nM | 810 nM | 400 nM | 2600 nM | 110 nM |  | COc1cc(CCNCCc2ccc(O)c(O)c2)ccc1OCCCc1ccccc1 |
| 11000 nM | 5700 nM | 5.8 nM | 6.2 nM | 3200 nM | 0.48 nM | 3300 nM | 22 nM | 1700 nM |  | 1400 nM |  |  |  | COc1cc(CCNC[C@H](O)c2ccc(O)c3[nH]c(=O)ccc23)ccc1OCCCc1ccccc1 |
|  |  |  |  | 32000 nM |  |  |  |  |  |  |  |  |  | OCc1cc(C(O)CNCCCCCCOCCCCc2ccccc2)ccc1O (centres undefined) [SALMETEROL] |
| 890 nM | 640 nM | 160 nM | 120 nM | 430 nM | 97 nM | 300 nM | 210 nM | 2200 nM | 420 nM | 50 nM |  | 170 nM |  | COc1ccccc1OCCNC[C@H](O)c1ccc(O)c(O)c1 |
| 4500 nM | 130 nM | 5.1 nM | 7 nM | 65 nM | 0.25 nM | 1400 nM | 13 nM | 690 nM | 4700 nM | 1900 nM | 13000 nM | 98 nM |  | COc1cc(CCNC[C@H](O)c2ccc(O)c3c2OCC(=O)N3)ccc1OCCCc1ccccc1 |
|  |  |  |  | 26 nM |  |  |  |  |  |  |  |  |  | COc1ccccc1OCCNC[C@@H](O)COc1cccc2[nH]c3ccccc3c12 [(R)-Carvedilol] |
| 6800 nM | 2900 nM | 300 nM | 840 nM | 2300 nM | 23 nM | 9200 nM | 510 nM | 790 nM |  | 1800 nM |  |  |  | COc1cc(CCNC[C@@H](O)c2ccc(O)c3[nH]c(=O)ccc23)ccc1OCCCc1ccccc1 |
|  |  |  |  | 86000 nM | 33 nM |  |  |  |  |  |  |  | 2600 | CCC(NC(C)C)C(O)c1ccc(O)c2[nH]c(=O)ccc12 (centres undefined) [PROCATEROL] |
| 2800 nM | 64 nM | 150 nM |  | 160 nM | 6.3 nM | 900 nM |  | 18 nM | 13000 nM | 920 nM | 240 nM | 17 nM |  | COc1cc(CCNCCc2ccc(O)c3[nH]c(=O)ccc23)ccc1OCCCc1ccccc1 |
|  |  |  |  | 1300 nM |  |  |  |  |  |  |  |  |  | NC[C@H](O)c1ccc(O)c(O)c1 [NOREPINEPHRINE] |
| 430 nM | 110 nM | 85 nM | 5100 nM | 67 nM | 18 nM | 140 nM | 260 nM | 62 nM | 1200 nM | 16 nM |  | 200 nM |  | COc1cc(CCNC[C@H](O)c2ccc(O)c(O)c2)ccc1OCCCc1ccccc1 |
| 2800 nM | 310 nM | 180 nM | 1000 nM | 96 nM | 13 nM | 5400 nM | 580 nM | 400 nM | 2200 nM | 1100 nM | 8800 nM | 7.3 nM |  | COc1cc(CCNC[C@@H](O)c2ccc(O)c3c2OCC(=O)N3)ccc1OCCCc1ccccc1 |

| Compound | Ki (D(1A) dopamine receptor) | Ki (D(2) dopamine receptor [1]) | Ki [2] | EC50 [3] | Ki (D(2) dopamine receptor [4]) | Ki [5] | Ki (D(4) dopamine receptor) | EC50 [6] | Ki (D(3) dopamine receptor) | Ki [7] | Ki [8] | EC50 (D(2) dopamine receptor [9]) | EC50 (D(2) dopamine receptor [10]) | Ratio Ki (Homo sapiens) |
| --- | --- | --- | --- | --- | --- | --- | --- | --- | --- | --- | --- | --- | --- | --- |
| CCCN1CCC[C@@H]2Cc3n[nH]cc3C[C@H]21 [QUINPIROLE] |  |  |  |  |  | 100000 nM |  |  |  |  |  |  |  |  |
| CCCN(CCC)[C@@H]1CCc2ccc(O)cc2C1 |  |  |  |  |  | 86000 nM |  |  |  |  |  |  |  |  |
| COc1ccccc1OCCNCCc1ccc(O)c(O)c1 | 210 nM | 85 nM | 5000 nM | 720 nM | 48 nM | 610 nM | 4.5 nM |  | 25 nM | 390 nM | 4.7 nM |  | 25 nM |  |
| CCCN(CCC)[C@H]1CCc2c(O)cccc2C1 |  |  |  |  |  | 40000 nM |  |  |  |  |  |  |  |  |
